From patent US11753408B2, “Compounds and method for blocking transmission of malarial parasite” (The United States of America, as represented by the …, priority 2016, dated 2023)

Tests used:
[1] = system: Stage III-V gametocytes (blood stage P. falciparum parasites); experiment: In vitro drug activity on gametocytes (AlamarBlue viability assay); format: cell-based, Plasmodium falciparum; details: read-out: Gametocyte EC50
Procedure, shortened: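 Viability was measured by AlamarBlue fluorescence (Ex 525/Em 598 nm) after 24 h dye incubation following 72 h compound exposure at 37° C, 5% CO2. Gametocytes, stage III–V from strains 3D7, HB3 and Dd2, were NAG/Percoll-enriched and plated at 20,000 cells/well.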

mTOR = mTOR (Homo sapiens, UniProt P42345); experiment: mTOR activity (no method described); format: biochemical
[2] = Microsomal stability (rat); format: in vitro ADME; details: rat microsomes
Solubility at pH 7.4 = format: physicochemical
[3] = system: Asexual parasites of P. falciparum strain 3D7; experiment: In vitro drug activity on asexual parasites (SYBR Green assay); format: cell-based, Plasmodium falciparum
Procedure, shortened: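 SYBR Green I fluorescence (ex 490, em 520 nm) was read after freeze-thaw lysis and 30 min staining at room temperature. Before that, drug-treated cultures (0.5% parasitemia, 2% hematocrit, DMSO ≤0.5%) were incubated 72 h, in duplicate.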

PAMPA permeability = format: in vitro ADME

## CN(C)Cc1ccc(-c2ccc3ncc4ccc(=O)n(-c5ccc(C(=O)N6CCOCC6)cc5)c4c3c2)cc1 [Compound 86]
[1]
  EC50: 212 nM
mTOR
  mTOR: 3776 nM
[2]
  Microsomal Stability (rat) T1/2: >30.0 min
Solubility at pH 7.4
  Sol @ pH 7.4: 61.6 ug/mL
[3]
  EC50: 177 nM
PAMPA permeability
  PAMPA Permeability: 459 ×10⁻⁶ cm/s

## O=C(NC1CC1)c1ccc(-n2c(=O)ccc3cnc4ccc(-c5ccc(Cl)cc5)cc4c32)cc1 [Compound 87]
[1]
  EC50: 139 nM
mTOR
  mTOR: 241.1 nM
[2]
  Microsomal Stability (rat) T1/2: >30.0 min
Solubility at pH 7.4
  Sol @ pH 7.4: 2.6 ug/mL
[3]
  EC50: 24.4 nM
PAMPA permeability
  PAMPA Permeability: 33.1 ×10⁻⁶ cm/s

## CN(C)C(=O)c1ccc(-n2c(=O)ccc3cnc4ccc(-c5ccc(Cl)cc5)cc4c32)cc1 [Compound 100]
[1]
  EC50: 45.5 nM
mTOR
  mTOR: 1531 nM
[2]
  Microsomal Stability (rat) T1/2: 3.8 min
Solubility at pH 7.4
  Sol @ pH 7.4: <1.0 ug/mL
[3]
  EC50: 14.8 nM
PAMPA permeability
  PAMPA Permeability: 315 ×10⁻⁶ cm/s

## CN1CCN(C(=O)c2ccc(-n3c(=O)ccc4cnc5ccc(-c6ccc(Cl)cc6)cc5c43)cc2)CC1 [Compound 102]
[1]
  EC50: 116 nM
mTOR
  mTOR: 5191 nM
[2]
  Microsomal Stability (rat) T1/2: 5 min
Solubility at pH 7.4
  Sol @ pH 7.4: 7.5 ug/mL
[3]
  EC50: 186 nM
PAMPA permeability
  PAMPA Permeability: 1080 ×10⁻⁶ cm/s

## O=C(c1ccc(-n2c(=O)ccc3cnc4ccc(-c5ccc(Cl)cc5)cc4c32)cc1)N1CCNCC1 [Compound 103]
[1]
  EC50: 71.3 nM
mTOR
  mTOR: 2997 nM
[2]
  Microsomal Stability (rat) T1/2: 10.5 min
Solubility at pH 7.4
  Sol @ pH 7.4: 6.3 ug/mL
[3]
  EC50: 74.3 nM
PAMPA permeability
  PAMPA Permeability: 76.1 ×10⁻⁶ cm/s

## O=C(c1ccc(-n2c(=O)ccc3cnc4ccc(-c5ccc(Cl)cc5)cc4c32)cc1)N1CCCCC1 [Compound 104]
[1]
  EC50: 194 nM
mTOR
  mTOR: 2680 nM
[2]
  Microsomal Stability (rat) T1/2: 1.4 min
Solubility at pH 7.4
  Sol @ pH 7.4: <1.0 ug/mL
[3]
  EC50: 215 nM
PAMPA permeability
  PAMPA Permeability: 389 ×10⁻⁶ cm/s

## O=C(c1ccc(-n2c(=O)ccc3cnc4ccc(-c5ccc(Cl)cc5)cc4c32)cc1)N(CCO)CCO [Compound 105]
[1]
  EC50: 94.3 nM
mTOR
  mTOR: 779.9 nM
[2]
  Microsomal Stability (rat) T1/2: 5.9 min
Solubility at pH 7.4
  Sol @ pH 7.4: 14.8 ug/mL
[3]
  EC50: 47.9 nM
PAMPA permeability
  PAMPA Permeability: 285 ×10⁻⁶ cm/s

## O=C(c1ccc(-n2c(=O)ccc3cnc4ccc(-c5ccc(Cl)cc5)cc4c32)cc1)N1CCCC1 [Compound 106]
[1]
  EC50: 126 nM
mTOR
  mTOR: 1735 nM
[2]
  Microsomal Stability (rat) T1/2: 2.1 min
Solubility at pH 7.4
  Sol @ pH 7.4: <1.0 ug/mL
[3]
  EC50: 64 nM
PAMPA permeability
  PAMPA Permeability: 621 ×10⁻⁶ cm/s

## O=C(c1ccc(-n2c(=O)ccc3cnc4ccc(-c5ccc(F)cc5)cc4c32)cc1)N1CCOCC1 [Compound 107]
[1]
  EC50: 65.9 nM
mTOR
  mTOR: 541.4 nM
[2]
  Microsomal Stability (rat) T1/2: 6.9 min
Solubility at pH 7.4
  Sol @ pH 7.4: <1.0 ug/mL
[3]
  EC50: 32.3 nM
PAMPA permeability
  PAMPA Permeability: 10.1 ×10⁻⁶ cm/s

## O=C(c1ccc(-n2c(=O)ccc3cnc4ccc(-c5ccc(Cl)cc5)cc4c32)cc1)N1CCC1 [Compound 108]
[1]
  EC50: 59.1 nM
mTOR
  mTOR: 1165 nM
[2]
  Microsomal Stability (rat) T1/2: <1.0 min
Solubility at pH 7.4
  Sol @ pH 7.4: <1.0 ug/mL
[3]
  EC50: 61.4 nM
PAMPA permeability
  PAMPA Permeability: 119 ×10⁻⁶ cm/s

## O=C(c1ccc(-n2c(=O)ccc3cnc4ccc(-c5ccc(Cl)cc5)cc4c32)cc1)N1CCN(CCO)CC1 [Compound 109]
[1]
  EC50: 18 nM
mTOR
  mTOR: 3260 nM
[2]
  Microsomal Stability (rat) T1/2: 12.3 min
Solubility at pH 7.4
  Sol @ pH 7.4: 4.2 ug/mL
[3]
  EC50: 60.7 nM
PAMPA permeability
  PAMPA Permeability: 227 ×10⁻⁶ cm/s

## CNC(=O)c1ccc(-n2c(=O)ccc3cnc4ccc(-c5ccc(Cl)cc5)cc4c32)cc1Cl [Compound 115]
[1]
  EC50: 6.21 nM
mTOR
  mTOR: 229.4 nM
[2]
  Microsomal Stability (rat) T1/2: 9 min
Solubility at pH 7.4
  Sol @ pH 7.4: <1.0 ug/mL
[3]
  EC50: 8.14 nM
PAMPA permeability
  PAMPA Permeability: < 1 ×10⁻⁶ cm/s

## O=C(c1ccc(-n2c(=O)ccc3cnc4ccc(-c5ccc(Cl)cc5)cc4c32)cc1Cl)N1CCOCC1 [Compound 116]
[1]
  EC50: 65 nM
mTOR
  mTOR: 454.6 nM
[2]
  Microsomal Stability (rat) T1/2: <1.0 min
Solubility at pH 7.4
  Sol @ pH 7.4: <1.0 ug/mL
[3]
  EC50: 22 nM
PAMPA permeability
  PAMPA Permeability: 383 ×10⁻⁶ cm/s

## Cc1cccc(-c2ccc3ncc4ccc(=O)n(-c5ccc(C(=O)N6CCOCC6)cc5)c4c3c2)c1 [Compound 121]
[1]
  EC50: 443 nM
mTOR
  mTOR: 522.6 nM
[2]
  Microsomal Stability (rat) T1/2: 5.4 min
[3]
  EC50: 221 nM
PAMPA permeability
  PAMPA Permeability: 243 ×10⁻⁶ cm/s

## O=C(c1ccc(-n2c(=O)ccc3cnc4ccc(-c5cccc(Cl)c5)cc4c32)cc1)N1CCOCC1 [Compound 122]
[1]
  EC50: 371 nM
mTOR
  mTOR: 1303 nM
[2]
  Microsomal Stability (rat) T1/2: 5.4 min
[3]
  EC50: 261 nM
PAMPA permeability
  PAMPA Permeability: 822 ×10⁻⁶ cm/s

## N#Cc1cccc(-c2ccc3ncc4ccc(=O)n(-c5ccc(C(=O)N6CCOCC6)cc5)c4c3c2)c1 [Compound 124]
[1]
  EC50: 349 nM
mTOR
  mTOR: 1357 nM
[2]
  Microsomal Stability (rat) T1/2: 19.7 min
[3]
  EC50: 144 nM
PAMPA permeability
  PAMPA Permeability: 20.4 ×10⁻⁶ cm/s

## O=C(c1ccc(-n2c(=O)ccc3cnc4ccc(-c5ccc(Cl)cc5)cc4c32)cc1C(F)(F)F)N1CCOCC1 [Compound 126]
[1]
  EC50: 118 nM
mTOR
  mTOR: 372.4 nM
[2]
  Microsomal Stability (rat) T1/2: 1.7 min
Solubility at pH 7.4
  Sol @ pH 7.4: <1.0 ug/mL
[3]
  EC50: 24 nM
PAMPA permeability
  PAMPA Permeability: 1240 ×10⁻⁶ cm/s

## O=C1Cc2cc(-c3ccc4ncc5ccc(=O)n(-c6ccc(C(=O)N7CCOCC7)cc6)c5c4c3)ccc2N1 [Compound 127]
[1]
  EC50: 169 nM
mTOR
  mTOR: 338.7 nM
[2]
  Microsomal Stability (rat) T1/2: 12.2 min
Solubility at pH 7.4
  Sol @ pH 7.4: 7.3 ug/mL
[3]
  EC50: 105 nM
PAMPA permeability
  PAMPA Permeability: 9.1 ×10⁻⁶ cm/s

## COc1cc(C(=O)NC2CC2)ccc1-n1c(=O)ccc2cnc3ccc(-c4ccc(F)cc4)cc3c21 [Compound 188]
[1]
  EC50: 602 nM
mTOR
  mTOR: 7201 nM
[2]
  Microsomal Stability (rat) T1/2: 21.5 min
Solubility at pH 7.4
  Sol @ pH 7.4: <1 ug/mL
PAMPA permeability
  PAMPA Permeability: 1250 ×10⁻⁶ cm/s

## O=C(c1ccc(-n2c(=O)ccc3cnc4ccc(-c5ccc(CN6CCC6)cc5)cc4c32)cc1)N1CCOCC1 [Compound 189]
[1]
  EC50: 358 nM
mTOR
  mTOR: 6514 nM
[2]
  Microsomal Stability (rat) T1/2: >30 min
Solubility at pH 7.4
  Sol @ pH 7.4: >78 ug/mL
PAMPA permeability
  PAMPA Permeability: 212 ×10⁻⁶ cm/s

## COc1cc(C(=O)NC2CC2)ccc1-n1c(=O)ccc2cnc3ccc(-c4ccc(Cl)cc4)cc3c21 [Compound 191]
[1]
  EC50: 172 nM
mTOR
  mTOR: 4337 nM
[2]
  Microsomal Stability (rat) T1/2: 26.7 min
Solubility at pH 7.4
  Sol @ pH 7.4: 2.4 ug/mL
PAMPA permeability
  PAMPA Permeability: 606 ×10⁻⁶ cm/s

## COc1cc(C(=O)N2CCOCC2)ccc1-n1c(=O)ccc2cnc3ccc(-c4ccc(CN(C)C)cc4)cc3c21 [Compound 193]
[1]
  EC50: 814 nM
mTOR
  mTOR: 8290 nM
[2]
  Microsomal Stability (rat) T1/2: >30 min
Solubility at pH 7.4
  Sol @ pH 7.4: >81 ug/mL
PAMPA permeability
  PAMPA Permeability: 162 ×10⁻⁶ cm/s

## COc1cc(C(=O)N2CCOCC2)ccc1-n1c(=O)ccc2cnc3ccc(-c4ccc(F)cc4)cc3c21 [Compound 194]
[1]
  EC50: 702 nM
mTOR
  mTOR: 100000 nM
[2]
  Microsomal Stability (rat) T1/2: 6.9 min
Solubility at pH 7.4
  Sol @ pH 7.4: <1 ug/mL
PAMPA permeability
  PAMPA Permeability: 1080 ×10⁻⁶ cm/s

## CCc1ccc(-c2ccc3ncc4ccc(=O)n(-c5ccc(C(=O)N6CCOCC6)cc5)c4c3c2)cc1 [Compound 195]
[1]
  EC50: 276 nM
mTOR
  mTOR: 781.4 nM
[2]
  Microsomal Stability (rat) T1/2: 8.8 min
Solubility at pH 7.4
  Sol @ pH 7.4: <1 ug/mL
PAMPA permeability
  PAMPA Permeability: 148 ×10⁻⁶ cm/s

## CC(C)(N)c1cccc(-c2ccc3ncc4ccc(=O)n(-c5ccc(C(=O)N6CCOCC6)cc5)c4c3c2)c1 [Compound 197]
[1]
  EC50: 65100 nM
mTOR
  mTOR: 2384 nM
[2]
  Microsomal Stability (rat) T1/2: >30 min
Solubility at pH 7.4
  Sol @ pH 7.4: >77 ug/mL
PAMPA permeability
  PAMPA Permeability: 3.5 ×10⁻⁶ cm/s
